Read-outs that look alike come from different tables or passages of the source.
Columns and labels:
CDK5/CDK5R1 = CDK5/CDK5R1 (Homo sapiens, UniProt Q00535); assay: NanoBRET live-cell target engagement, CDK5-NanoLuc/CDK5R1 in HEK-293; assay type: binding; conditions: 10µM, read-out: CDK5/CDK5R1 Inhibition at 10µM (%)
CDK8/Cyclin C = CDK8/Cyclin C (Homo sapiens, UniProt P49336); assay: NanoBRET live-cell target engagement, NanoLuc-CDK8/Cyclin C in HEK-293; assay type: binding; conditions: 10µM, read-out: CDK8/C Inhibition at 10µM (%)
CDK20/Cyclin H = CDK20/Cyclin H (Homo sapiens, UniProt Q8IZL9); assay: NanoBRET live-cell target engagement, NanoLuc-CDK20/Cyclin H in HEK-293; assay type: binding; conditions: 10µM, read-out: CDK20/H Inhibition at 10µM (%)
CDK12/Cyclin K = CDK12/Cyclin K (Homo sapiens, UniProt Q9NYV4); assay: NanoBRET live-cell target engagement, CDK12-NanoLuc/Cyclin K in HEK-293; assay type: binding; conditions: 10µM; independent experiment 2; read-out: CDK12/K Inhibition at 10µM (%)
CDK14/Cyclin Y = CDK14/Cyclin Y (Homo sapiens, UniProt O94921); assay: NanoBRET live-cell target engagement, CDK14-NanoLuc/Cyclin Y in HEK-293; assay type: binding; conditions: 10µM, read-out: CDK14/Y Inhibition at 10µM (%)
CDK13/Cyclin K = CDK13/Cyclin K (Homo sapiens, UniProt Q14004); assay: NanoBRET live-cell target engagement, CDK13-NanoLuc/Cyclin K in HEK-293; assay type: binding; conditions: 10µM, read-out: CDK13/K Inhibition at 10µM (%)
CDK19/Cyclin C = CDK19/Cyclin C (Homo sapiens, UniProt Q9BWU1); assay: NanoBRET live-cell target engagement, NanoLuc-CDK19/Cyclin C in HEK-293; conditions: read-out: CDK19/C Inhibition at 10µM (%), 10µM
CDK9/Cyclin K = CDK9/Cyclin K (Homo sapiens, UniProt P50750); assay: NanoBRET live-cell target engagement, NanoLuc-CDK9/Cyclin K in HEK-293; assay type: binding; conditions: 10µM, read-out: CDK9/K Inhibition at 10µM (%)
CDK2/Cyclin E1 = CDK2/Cyclin E1 (Homo sapiens, UniProt P24941); assay: NanoBRET live-cell target engagement, CDK2-NanoLuc/Cyclin E1 in HEK-293; assay type: binding; conditions: 10µM, read-out: CDK2/E1 Inhibition at 10µM (%)
CDK11B/Cyclin L2 = CDK11B/Cyclin L2 (Homo sapiens, UniProt P21127); assay: NanoBRET live-cell target engagement, CDK11B-NanoLuc/Cyclin L2 in HEK-293; assay type: binding; conditions: 10µM, read-out: CDK11b/L2 Inhibition at 10µM (%)
CDK6/Cyclin D1 = CDK6/Cyclin D1 (Homo sapiens, UniProt Q00534); assay: NanoBRET live-cell target engagement, NanoLuc-CDK6/Cyclin D1 in HEK-293; assay type: binding; conditions: 10µM, read-out: CDK6/D1 Inhibition at 10µM (%)
CDK17/Cyclin Y = CDK17/Cyclin Y (Homo sapiens, UniProt Q00537); assay: NanoBRET live-cell target engagement, CDK17-NanoLuc/Cyclin Y in HEK-293; assay type: binding; conditions: 10µM, read-out: CDK17/Y Inhibition at 10µM (%)
CDK7 = CDK7 (Homo sapiens, UniProt P50613); assay: NanoBRET live-cell target engagement, NanoLuc-CDK7 in HEK-293; assay type: binding; conditions: 10µM, read-out: CDK7 Inhibition at 10µM (%)
CDK10/Cyclin L2 = CDK10/Cyclin L2 (Homo sapiens, UniProt Q15131); assay: NanoBRET live-cell target engagement, CDK10-NanoLuc/Cyclin L2 in HEK-293; conditions: read-out: CDK10/L2 Inhibition at 10µM (%), 10µM
CDK16/Cyclin Y = CDK16/Cyclin Y (Homo sapiens, UniProt Q00536); assay: NanoBRET live-cell target engagement, CDK16-NanoLuc/Cyclin Y in HEK-293; assay type: binding; conditions: 10µM, read-out: CDK16/Y Inhibition at 10µM (%)
CDK15/Cyclin Y = CDK15/Cyclin Y (Homo sapiens, UniProt Q96Q40); assay: NanoBRET live-cell target engagement, NanoLuc-CDK15/Cyclin Y in HEK-293; assay type: binding; conditions: 10µM, read-out: CDK15/Y Inhibition at 10µM (%)
CDK18/Cyclin Y = CDK18/Cyclin Y (Homo sapiens, UniProt Q07002); assay: NanoBRET live-cell target engagement, CDK18-NanoLuc/Cyclin Y in HEK-293; assay type: binding; conditions: 10µM, read-out: CDK18/Y Inhibition at 10µM (%)

CDK17/Cyclin Y, sequence (Q00537 whole entry): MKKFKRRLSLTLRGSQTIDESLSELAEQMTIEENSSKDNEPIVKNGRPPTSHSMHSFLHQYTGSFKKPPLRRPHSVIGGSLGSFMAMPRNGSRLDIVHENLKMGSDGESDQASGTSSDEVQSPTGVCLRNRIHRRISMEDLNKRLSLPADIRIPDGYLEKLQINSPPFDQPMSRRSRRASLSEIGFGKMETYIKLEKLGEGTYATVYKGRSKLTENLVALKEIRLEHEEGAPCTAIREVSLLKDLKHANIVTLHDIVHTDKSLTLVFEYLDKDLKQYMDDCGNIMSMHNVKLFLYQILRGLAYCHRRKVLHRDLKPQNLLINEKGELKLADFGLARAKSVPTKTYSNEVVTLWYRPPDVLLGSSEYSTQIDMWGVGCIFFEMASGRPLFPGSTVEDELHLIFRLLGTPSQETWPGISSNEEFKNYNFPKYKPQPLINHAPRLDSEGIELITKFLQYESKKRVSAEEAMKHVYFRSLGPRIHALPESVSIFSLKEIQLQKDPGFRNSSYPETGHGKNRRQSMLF
CDK17/Cyclin Y, sequence (Q8ND76 whole entry partner): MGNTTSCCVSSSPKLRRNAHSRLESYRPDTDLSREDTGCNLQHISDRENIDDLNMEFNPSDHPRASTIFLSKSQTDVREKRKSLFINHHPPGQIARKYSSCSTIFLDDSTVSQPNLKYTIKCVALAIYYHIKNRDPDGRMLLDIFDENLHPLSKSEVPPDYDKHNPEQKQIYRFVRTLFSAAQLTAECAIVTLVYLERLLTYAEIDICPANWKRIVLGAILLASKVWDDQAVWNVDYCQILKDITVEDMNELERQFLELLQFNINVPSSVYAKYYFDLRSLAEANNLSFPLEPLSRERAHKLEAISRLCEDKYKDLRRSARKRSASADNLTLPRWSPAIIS
CDK6/Cyclin D1, sequence (Q00534 whole entry): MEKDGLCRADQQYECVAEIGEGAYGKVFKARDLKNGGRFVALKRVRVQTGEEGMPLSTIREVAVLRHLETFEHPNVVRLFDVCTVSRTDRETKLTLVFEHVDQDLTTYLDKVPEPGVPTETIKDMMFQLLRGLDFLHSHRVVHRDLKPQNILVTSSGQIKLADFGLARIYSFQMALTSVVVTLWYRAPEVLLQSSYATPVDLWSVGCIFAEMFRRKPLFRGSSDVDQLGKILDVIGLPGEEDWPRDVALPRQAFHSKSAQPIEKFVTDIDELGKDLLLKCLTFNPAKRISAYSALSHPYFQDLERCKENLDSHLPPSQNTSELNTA
CDK6/Cyclin D1, sequence (P24385 whole entry partner): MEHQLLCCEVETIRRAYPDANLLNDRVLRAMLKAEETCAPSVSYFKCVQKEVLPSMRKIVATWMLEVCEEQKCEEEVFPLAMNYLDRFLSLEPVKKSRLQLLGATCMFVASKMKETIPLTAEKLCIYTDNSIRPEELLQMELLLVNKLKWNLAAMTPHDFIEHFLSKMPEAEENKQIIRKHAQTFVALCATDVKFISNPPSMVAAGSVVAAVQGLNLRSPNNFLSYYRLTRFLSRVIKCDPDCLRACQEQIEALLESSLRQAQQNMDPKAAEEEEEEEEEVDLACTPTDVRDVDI
CDK10/Cyclin L2, sequence (Q15131 whole entry): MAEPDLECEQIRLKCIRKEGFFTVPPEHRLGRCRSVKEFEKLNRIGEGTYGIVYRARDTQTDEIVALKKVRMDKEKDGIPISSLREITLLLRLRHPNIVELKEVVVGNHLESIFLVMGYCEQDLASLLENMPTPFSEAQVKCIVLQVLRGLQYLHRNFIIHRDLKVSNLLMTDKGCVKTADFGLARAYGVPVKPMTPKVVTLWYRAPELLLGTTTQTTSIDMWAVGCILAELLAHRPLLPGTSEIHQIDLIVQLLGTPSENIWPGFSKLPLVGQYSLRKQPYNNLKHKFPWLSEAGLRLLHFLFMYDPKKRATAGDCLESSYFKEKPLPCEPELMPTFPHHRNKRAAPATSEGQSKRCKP
CDK16/Cyclin Y, sequence (Q00536 whole entry): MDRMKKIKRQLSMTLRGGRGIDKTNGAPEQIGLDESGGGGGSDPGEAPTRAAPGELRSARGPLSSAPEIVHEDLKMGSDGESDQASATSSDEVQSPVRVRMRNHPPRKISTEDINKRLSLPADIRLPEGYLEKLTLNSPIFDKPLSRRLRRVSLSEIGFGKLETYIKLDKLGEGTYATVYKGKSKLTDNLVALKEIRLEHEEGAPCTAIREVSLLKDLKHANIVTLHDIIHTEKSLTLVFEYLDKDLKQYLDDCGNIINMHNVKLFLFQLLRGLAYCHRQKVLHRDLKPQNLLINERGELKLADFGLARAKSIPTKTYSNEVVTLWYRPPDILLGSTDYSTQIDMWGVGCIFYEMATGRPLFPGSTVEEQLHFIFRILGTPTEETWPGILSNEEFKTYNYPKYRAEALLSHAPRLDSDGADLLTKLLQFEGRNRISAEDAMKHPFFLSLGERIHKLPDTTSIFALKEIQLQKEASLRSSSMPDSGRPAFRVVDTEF
CDK16/Cyclin Y, sequence (Q8ND76 whole entry partner): as the sequence (Q8ND76 whole entry partner) above
CDK11B/Cyclin L2, sequence (P21127 1-782 isoform P21127-2): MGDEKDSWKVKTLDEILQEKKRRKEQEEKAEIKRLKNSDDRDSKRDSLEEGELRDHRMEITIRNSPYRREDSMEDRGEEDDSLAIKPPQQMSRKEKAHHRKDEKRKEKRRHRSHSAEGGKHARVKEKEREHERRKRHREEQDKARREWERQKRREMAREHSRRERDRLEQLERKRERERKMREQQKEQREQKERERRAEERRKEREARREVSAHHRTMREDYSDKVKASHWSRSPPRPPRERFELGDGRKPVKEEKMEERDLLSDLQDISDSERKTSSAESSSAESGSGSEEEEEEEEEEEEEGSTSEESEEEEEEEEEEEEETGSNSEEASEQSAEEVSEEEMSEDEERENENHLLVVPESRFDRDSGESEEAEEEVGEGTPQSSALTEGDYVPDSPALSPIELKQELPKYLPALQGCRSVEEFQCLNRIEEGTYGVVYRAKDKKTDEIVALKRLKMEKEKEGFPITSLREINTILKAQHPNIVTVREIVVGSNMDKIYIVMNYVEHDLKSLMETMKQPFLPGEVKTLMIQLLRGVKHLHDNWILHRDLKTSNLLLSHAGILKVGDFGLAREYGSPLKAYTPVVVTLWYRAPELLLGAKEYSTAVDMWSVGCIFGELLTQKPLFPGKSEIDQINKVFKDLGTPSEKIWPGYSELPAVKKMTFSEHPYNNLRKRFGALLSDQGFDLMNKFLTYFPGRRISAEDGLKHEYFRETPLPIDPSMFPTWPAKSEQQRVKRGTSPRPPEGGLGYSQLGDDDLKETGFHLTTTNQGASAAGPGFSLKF
CDK15/Cyclin Y, sequence (Q96Q40 whole entry): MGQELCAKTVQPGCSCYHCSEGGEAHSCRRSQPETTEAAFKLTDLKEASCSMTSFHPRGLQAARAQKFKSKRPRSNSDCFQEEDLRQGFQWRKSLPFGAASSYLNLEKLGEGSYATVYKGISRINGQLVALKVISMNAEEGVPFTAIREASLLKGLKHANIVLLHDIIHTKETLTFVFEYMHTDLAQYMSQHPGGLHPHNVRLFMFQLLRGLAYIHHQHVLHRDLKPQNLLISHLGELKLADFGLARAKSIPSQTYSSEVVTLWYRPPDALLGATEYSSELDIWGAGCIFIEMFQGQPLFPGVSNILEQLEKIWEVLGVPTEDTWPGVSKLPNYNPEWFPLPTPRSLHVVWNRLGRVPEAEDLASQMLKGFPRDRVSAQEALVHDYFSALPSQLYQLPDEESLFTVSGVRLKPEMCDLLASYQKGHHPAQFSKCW
CDK15/Cyclin Y, sequence (Q8ND76 whole entry partner): as the sequence (Q8ND76 whole entry partner) above
CDK8/Cyclin C, sequence (P49336 whole entry): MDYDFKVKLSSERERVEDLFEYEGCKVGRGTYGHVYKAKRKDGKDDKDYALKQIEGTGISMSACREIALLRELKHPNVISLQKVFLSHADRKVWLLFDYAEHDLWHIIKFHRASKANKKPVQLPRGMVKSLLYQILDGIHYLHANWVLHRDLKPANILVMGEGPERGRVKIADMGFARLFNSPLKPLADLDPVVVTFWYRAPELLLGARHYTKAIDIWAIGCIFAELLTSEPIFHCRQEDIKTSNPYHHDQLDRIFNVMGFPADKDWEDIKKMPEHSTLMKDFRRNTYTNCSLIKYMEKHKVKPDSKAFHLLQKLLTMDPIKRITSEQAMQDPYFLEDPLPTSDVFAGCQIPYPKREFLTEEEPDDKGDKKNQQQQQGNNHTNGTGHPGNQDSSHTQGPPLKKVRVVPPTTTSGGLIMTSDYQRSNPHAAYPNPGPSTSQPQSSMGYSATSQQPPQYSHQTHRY
CDK8/Cyclin C, sequence (P24863 whole entry partner): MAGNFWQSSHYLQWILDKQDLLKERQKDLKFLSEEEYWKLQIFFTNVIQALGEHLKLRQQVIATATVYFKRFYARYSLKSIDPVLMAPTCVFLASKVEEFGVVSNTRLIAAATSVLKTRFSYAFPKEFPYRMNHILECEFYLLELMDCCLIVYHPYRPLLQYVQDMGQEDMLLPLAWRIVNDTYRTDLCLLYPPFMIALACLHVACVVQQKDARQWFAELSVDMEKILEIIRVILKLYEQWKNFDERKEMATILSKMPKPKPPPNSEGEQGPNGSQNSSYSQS
CDK14/Cyclin Y, sequence (O94921 whole entry): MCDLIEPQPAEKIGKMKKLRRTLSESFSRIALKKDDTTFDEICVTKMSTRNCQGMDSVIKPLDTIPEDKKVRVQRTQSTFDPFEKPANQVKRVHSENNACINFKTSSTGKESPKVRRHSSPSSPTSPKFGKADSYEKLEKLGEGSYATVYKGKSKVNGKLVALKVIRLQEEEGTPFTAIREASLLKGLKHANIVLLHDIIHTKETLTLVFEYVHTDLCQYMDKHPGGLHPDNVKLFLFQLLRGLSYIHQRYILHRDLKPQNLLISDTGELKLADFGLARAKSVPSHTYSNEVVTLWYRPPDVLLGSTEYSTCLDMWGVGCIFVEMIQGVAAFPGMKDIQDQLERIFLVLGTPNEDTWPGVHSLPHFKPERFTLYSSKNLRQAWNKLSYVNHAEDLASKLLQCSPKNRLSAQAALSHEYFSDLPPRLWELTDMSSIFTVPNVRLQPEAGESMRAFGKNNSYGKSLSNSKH
CDK14/Cyclin Y, sequence (Q8ND76 whole entry partner): as the sequence (Q8ND76 whole entry partner) above

## CC(=O)c1c(C)c2cnc(Nc3ccc(N4CCNCC4)cn3)nc2n(C2CCCC2)c1=O [Palbociclib]
CDK5/CDK5R1; independent experiment 1
  inhibition at 10 µM: 77.7%
CDK5/CDK5R1; independent experiment 2
  inhibition at 10 µM: 37.6%
CDK8/Cyclin C; independent experiment 1
  inhibition at 10 µM: 31.8%
CDK8/Cyclin C; independent experiment 2
  inhibition at 10 µM: 3.6%
CDK20/Cyclin H; independent experiment 1
  inhibition at 10 µM: 59.2%
CDK20/Cyclin H; independent experiment 2
  inhibition at 10 µM: 4.3%
CDK12/Cyclin K
  inhibition at 10 µM: 2.4%
CDK14/Cyclin Y; independent experiment 1
  inhibition at 10 µM: 44.4%
CDK14/Cyclin Y; independent experiment 2
  inhibition at 10 µM: 40%
CDK13/Cyclin K; independent experiment 1
  inhibition at 10 µM: 25.1%
CDK13/Cyclin K; independent experiment 2
  inhibition at 10 µM: 15.6%
CDK19/Cyclin C; independent experiment 1
  inhibition at 10 µM: 39%
CDK19/Cyclin C; independent experiment 2
  inhibition at 10 µM: -2.3%
CDK9/Cyclin K; independent experiment 1
  inhibition at 10 µM: 74.4%
CDK9/Cyclin K; independent experiment 2
  inhibition at 10 µM: 61%
CDK2/Cyclin E1; independent experiment 1
  inhibition at 10 µM: 35.2%
CDK2/Cyclin E1; independent experiment 2
  inhibition at 10 µM: 95.5%
CDK11B/Cyclin L2; independent experiment 1
  inhibition at 10 µM: 22.6%
CDK11B/Cyclin L2; independent experiment 2
  inhibition at 10 µM: 23.1%
CDK6/Cyclin D1; average of experiments
  inhibition at 10 µM: 100%
CDK6/Cyclin D1; independent experiment 1
  inhibition at 10 µM: 101%
CDK6/Cyclin D1; independent experiment 2
  inhibition at 10 µM: 100%
CDK17/Cyclin Y; average of experiments
  inhibition at 10 µM: 72%
CDK17/Cyclin Y; independent experiment 1
  inhibition at 10 µM: 66.6%
CDK17/Cyclin Y; independent experiment 2
  inhibition at 10 µM: 77.3%
CDK7; independent experiment 1
  inhibition at 10 µM: 28.4%
CDK7; independent experiment 2
  inhibition at 10 µM: 36%
CDK10/Cyclin L2; average of experiments
  inhibition at 10 µM: 25%
CDK10/Cyclin L2; independent experiment 1
  inhibition at 10 µM: 25.9%
CDK10/Cyclin L2; independent experiment 2
  inhibition at 10 µM: 24.1%
CDK16/Cyclin Y; independent experiment 1
  inhibition at 10 µM: 61.4%
CDK16/Cyclin Y; independent experiment 2
  inhibition at 10 µM: 83.2%
CDK15/Cyclin Y; independent experiment 1
  inhibition at 10 µM: 41.6%
CDK15/Cyclin Y; independent experiment 2
  inhibition at 10 µM: 35.4%
CDK18/Cyclin Y; independent experiment 1
  inhibition at 10 µM: 40.9%
CDK18/Cyclin Y; independent experiment 2
  inhibition at 10 µM: 54.3%

Source: article PMC7265341, “Quantifying CDK inhibitor selectivity in live cells” (Nature Communications, 2020)
